For data set [1] the following is noted: cited from earlier work.
For data set [2] the following is noted: administered concomitantly with an itraconazole capsule formulation; cited from earlier work.
The format of data set [3] is in vivo, human. The conditions noted are these: for AUC(0-inf) / AUC(0-t) / Cmax: human, plasma, 40 mg, adjusted G mean, linear mixed effects model; for AUC(0-inf): AUCinf; for AUC(0-t): AUClast.
Data set [4] is classed as in vivo, human. As to conditions: for decrease in Cmax: with rabeprazole vs asciminib alone.
Data set [5] is classed as in vitro ADME. As to conditions: for dissolution rate: 40 mg asciminib, 900 ml, 37°C.
A short description of data set [6]: In vitro binding constant of asciminib and cyclodextrin. It counts as physicochemical.
For data set [7] the following is noted: weak base; cited from earlier work.
The conditions of data set [8]: 40 mg asciminib b.i.d., cited from earlier work.
For data set [9] the following is noted: aqueous solution; cited from earlier work.
The mark [10] stands for this setting: oral, Cohort 2, asciminib ± quinidine.
[11] abbreviates: oral, Cohort 3, asciminib ± rifampicin.
Setting [12] is: oral, Cohort 5, asciminib ± clarithromycin.
[13] abbreviates: po, Cohort 1, asciminib ± itraconazole (oral solution).
[14] abbreviates: with clarithromycin vs asciminib alone, cohort 5.
The mark [15] stands for this setting: with itraconazole (oral solution) vs asciminib alone, cohort 1.
The mark [16] stands for this setting: with itraconazole oral solution vs asciminib alone.
The mark [17] stands for this setting: with quinidine vs asciminib alone, cohort 2.
[18] abbreviates: with rifampicin vs asciminib alone, cohort 3.

Read-outs that look alike come from different tables or passages of the source.

With `C[C@H]1CN(C2COC2)CCN1c1ccc(Nc2cc(-c3ccnc(N4CCn5c(cc6c5CC(C)(C)C6)C4=O)c3CO)cn(C)c2=O)nc1` [fenebrutinib], the “in vitro binding constant with cyclodextrin” value in [1] is reported as 200,000 /M.
Take `CCc1cc(/C(C)=N/OCc2ccc(C3CCCCC3)c(C(F)(F)F)c2)ccc1CN1CC(C(=O)O)C1` [siponimod]: in [2], the decrease in exposure was 10%–24%.
One may read the half-life as the time in which the quantity being followed falls by half. A lower half-life goes with fast loss. With `O=C(Nc1ccc(OC(F)(F)Cl)cc1)c1cnc(N2CC[C@@H](O)C2)c(-c2ccn[nH]2)c1` [Asciminib], the AUC(0-inf) in [3] (setting [10]) is 6750 ng·h/mL; in data set [3] (setting [11]), 5630 ng·h/mL; in [3] (setting [12]) it was 5740 ng·h/mL; in data set [3] (setting [13]), 7000 ng·h/mL; in [4] (human, plasma, oral, 40 mg) it was 9850 ng·h/mL; in data set [4] (human, plasma, po, 40 mg), 9850 ng·h/mL. The AUC(0-t) was determined as 6700 ng·h/mL in data set [3] (setting [10]); 5400 ng·h/mL in [3] (setting [11]); 5670 ng·h/mL in data set [3] (setting [12]); 6950 ng·h/mL in [3] (setting [13]); 9200 ng·h/mL in [4] (human, plasma, oral, 40 mg); 9200 ng·h/mL in [4] (human, plasma, po, 40 mg). In addition, the Cmax in data set [3] (setting [10]) came to 618 ng/mL; in data set [3] (setting [11]) it was 559 ng/mL; in [3] (setting [13]) it was 679 ng/mL; in data set [4] (human, plasma, oral, 40 mg), 943 ng/mL; in [4] (human, plasma, po, 40 mg), 943 ng/mL. Moreover, the “increase in asciminib exposure” value in data set [3] (with clarithromycin vs asciminib alone) is recorded as ~ 35%; in data set [3] (with itraconazole capsule vs asciminib alone), ~ 3%. Further, the “increase in AUCinf” value in data set [3] (setting [14]) amounted to 36%. The “increase in AUClast” value in [3] (setting [14]) is given as 37%. The “increase in Cmax” value in data set [3] (setting [14]) amounted to 19%; in [3] (setting [18]), 9%. Besides, in [3] (setting [15]), the “decrease in G mean of AUCinf” value was 40.2%. In addition, the “decrease in G mean of AUClast” value in data set [3] (setting [15]) is 41.2%. The “decrease in asciminib Cmax” value is on record as ~ 50% in data set [3] (setting [16]) and 50.1% in [3] (with itraconazole oral solution vs asciminib alone, listed as asciminib). The “decrease in asciminib exposure (AUC)” value in data set [3] (setting [16]) is ~ 40%. Further, in [3] (with quinidine vs asciminib alone), the “decrease in asciminib AUC” value is on record as 13–16%. The “decrease in AUCinf” value in data set [3] (setting [17]) amounted to 12.9%; in data set [3] (setting [18]), 14.9%. The “decrease in AUClast” value in [3] (setting [17]) is reported as 16.0%; in [3] (setting [18]) it was 12.7%. Further, the “decrease in Cmax” value was 11.3% in data set [3] (setting [17]), 9% in data set [4] and ~ 9% in data set [4] (listed as asciminib). Further, the “decrease in asciminib AUC (exposure)” value in data set [3] (with rifampicin vs asciminib alone) is 13–15%; in data set [3] (with rifampicin vs asciminib alone, listed as asciminib) it was 15%. In [4] (human, plasma, po, 40 mg), this compound had a half-life of 12.6 h. The values for the dissolution rate in data set [5] (FaSSIF V2 media alone) and in [5] (FaSSIF V2 media with added cyclodextrin) were 87% and 105%, respectively. Moreover, in [5] (FaSSIF V2 media alone, acceptor volume 12 ml), the flux was determined as 1.29 µg/min. Besides, the calculated flux in data set [5] (FaSSIF V2 media alone, membrane area 3.88 cm^2) was 0.332 μg/min*cm^2; in [5] (FaSSIF V2 plus cyclodextrin), 0.071 μg/min*cm^2. Besides, the flux rate in [5] (FaSSIF V2 plus cyclodextrin) worked out at 0.28 µg/min. Further, the “decrease of asciminib flux through a lipid membrane” value in data set [5] (by cyclodextrin) was ~ 80%. Further, in data set [6] (FaSSIF V2 and 0.3× FeSSIF V2 vs buffer), the “drop in binding constant” value was ~ 65 fold. Besides, the binding to cyclodextrin entry in [6] (acidic pH of FaSSGF and high bile component concentration of FeSSIF V2) was “practically no binding”. Also, in data set [7], the pK a is reported as 4.0. Also, the “AUC0–12 h at steady-state, G mean” value is 6450 ng·h/mL in data set [8] (Japanese subjects (n = 5), GCV% 22.8) and 5370 ng·h/mL in data set [8] (non-Japanese subjects (n = 8), GCV% 39.4). The pH-dependent solubility entry in [9] is “high at acidic pH and decreases with increasing pH”.

Source of the values: paper PMC9283742 (Clinical and Translational Science, 2022).
